Measured values from patent US20140234318A1, “TUMOR SPECIFIC OLIGOSACCHARIDE EPITOPES AND USE THEREOF” (GLYKOS FINLAND OY, priority 2002, published 2014).

Experiments:
Helicobacter pylori [1] = assay: Receptor activity of oligosaccharides for Helicobacter pylori; type: binding; conditions: relative to the non-galactosylated receptor
Procedure: The structure is changed to 10-fold weaker receptor structure Galβ4GlcNAcβ3Galβ4GlcNAcβ3Galβ4Glc by incubating it with UDP-Gal and β4-galactosyltransferase from bovine milk. b) The oligosaccharide receptor GlcNAcβ3Galβ4GlcNAcβ3Galβ4Glc is incubated with GDP-Fuc and soluble human fucosyltransferase VI corresponding to major the fucosyltransferase from human milk. MALDI-TOF mass spectrometric analysis reveled a major peak corresponding to GlcNAcβ3Galβ4(Fucα3)GlcNAcβ3Galβ4Glc, the structure is confirmed by NMR-spectroscopy. c) Erythrocytes from a patient suffering from glycosylation deficiency causing high levels of terminal GlcNAc-structures including GlcNAcβ3Galβ4GlcβCer are incubated with radiolabeled UDP-Gal and βgalactosyltransferase. Transfer of labeled galactose on the cell surface is observed. The galactosylation of the cells reduces the reactivity of the cells with anti-GlcNAc-antibodies.

Helicobacter pylori [2] = conditions: cited from earlier work
[3] = tested on: endogenous galactosyltransferase activity of human serum; assay: Activation of endogenous galactosyltransferase activity of human serum; type: biochemical
Procedure: Fresh human blood sample was collected from blood group B-individual (5 ml). After clotting for 30 min it was centrifuged at +4° C., 2000 rpm for 25 minutes, and the serum was collected for experiments (2 ml, stored on ice).
Reactions were performed with 50 nmol of acceptor saccharide (GlcNAcβ1-3Galβ1-4GlcNAc, from enzymatic synthesis, purified by ion exchange and gel filtration, characterized by NMR and mass spectrometry), 5 nmol UDP-[^14C]Gal (mixture of nonlabelled and radioactive, radioactivity was 100 000 cpm) and 20 μl of fresh human serum (total volume was 20 μl). Reaction conditions were varied by adding cations and bovine milk β1,4-galactosyltransferase (β1,4GalT).

[4] = tested on: IgM antibodies against specific carbohydrate epitopes in serum of cancer patients; assay: ELISA of serum IgM antibodies binding to synthetic glycoconjugates; parameters: species or system human
Text: (§1) A group of four people with various stages of diagnosed cancer of the gastrointestinal tract or the ovary, was studied by analyzing serum samples for their concentrations of IgG and IgM antibodies against specific carbohydrate epitopes. The assay consisted of binding of specific antibodies from serum to synthetic glycoconjugates, washing, and then detecting the specifically bound antibody levels in ELISA with enzyme-labelled anti-human IgG or anti-human IgM secondary antibodies and quantitation of specific reaction products.

[5] = tested on: IgG antibodies against specific carbohydrate epitopes in serum of cancer patients; assay: ELISA of serum IgG antibodies binding to synthetic glycoconjugates; parameters: species or system human; conditions: for serum antibody levels against the epitope, summary in words: IgG and IgM, group of four cancer patients
Text: as §1

[6] = tested on: recombinant β1,4-galactosyltransferase similar to the enzyme described in (Ramakrishnan and Qasba, 2002); assay: Transfer of modified galactosamine from UDP-GalN conjugates to terminal GlcNAc acceptor by modified galactosyltransferase; type: biochemical, bovine; conditions: MALDI-TOF MS of the product
[7] = tested on: terminal GlcNAc residues in lung adenocarcinoma tissue sections; assay: Labeling of terminal GlcNAc residues in tissue sections with UDP-GalN-biotin; parameters: species or system human; conditions: streptavin-FITC, fluorescence microscopy
Procedure: In a typical procedure, an oligosaccharide acceptor such as GlcNAcβ1-3Galβ1-4GlcNAcβ1-3Galβ1-4Glc, or deparaffinised formalin-fixed paraffin-embedded tissue sections, are incubated at + 37° C. with a reaction mixture containing 10 mM UDP-GalN-biotin, 160 U/l enzyme, 100 mM Tris-HCl, and 20 mM MnCl2. After washing, the biotin groups are visualised by standard methods in the art, using streptavidin or avidin coupled reagents, for example streptavidin-FITC.

Compound | antibody signal intensity from which the assay background has been subtracted ([4]; Patient 1, IgM) | antibody signal intensity from which the assay background has been subtracted ([4]; Patient 2, IgM) | antibody signal intensity from which the assay background has been subtracted ([4]; Patient 3, IgM) | antibody signal intensity from which the assay background has been subtracted ([4]; Patient 4, IgM) | serum antibody levels against the epitope, summary in words [5] | antibody signal intensity from which the assay background has been subtracted ([5]; Patient 1, IgG) | antibody signal intensity from which the assay background has been subtracted ([5]; Patient 2, IgG) | antibody signal intensity from which the assay background has been subtracted ([5]; Patient 3, IgG) | antibody signal intensity from which the assay background has been subtracted ([5]; Patient 4, IgG) | other results
CC(=O)N[C@H]1[C@H](O[C@H]2[C@@H](O)[C@@H](CO)O[C@@H](O[C@H]3[C@H](O)[C@@H](NC(C)=O)[C@H](O[C@H]4[C@@H](O)[C@@H](CO)O[C@@H](O[C@H]5[C@H](O)[C@@H](O)C(O)O[C@@H]5CO)[C@@H]4O)O[C@@H]3CO)[C@@H]2O)O[C@H](CO)[C@@H](O[C@@H]2O[C@H](CO)[C@H](O)[C@H](O)[C@H]2O)[C@@H]1O (stereo partly shown) [Galβ4GlcNAcβ3Galβ4GlcNAcβ3Galβ4Glc] |  |  |  |  |  |  |  |  |  | receptor strength for Helicobacter pylori, weaker than GlcNAcβ3Galβ4GlcNAcβ3Galβ4Glc (Helicobacter pylori [1]): 10 fold
CC(=O)N[C@H]1[C@H](O[C@H]2[C@@H](O)[C@@H](CO)O[C@@H](O[C@H]3[C@H](O)[C@@H](O)C(O)O[C@@H]3CO)[C@@H]2O)O[C@H](CO)[C@@H](O[C@@H]2O[C@H](CO)[C@H](O)[C@@H](O[C@@H]3O[C@H](CO)[C@@H](O)[C@H](O)[C@H]3NC(C)=O)[C@H]2O)[C@@H]1O (stereo partly shown) [GlcNAcβ3Galβ4GlcNAcβ3Galβ4Glc] |  |  |  |  |  |  |  |  |  | receptor for Helicobacter pylori (Helicobacter pylori [2]): receptor for the gastric pathogen Helicobacter pylori
[Cl][Mn][Cl] [MnCl2] |  |  |  |  |  |  |  |  |  | Product ([3]; 0.2 mM MnCl2, no external β1,4GalT): 457 cpm; Product ([3]; 1 mM MnCl2, no external β1,4GalT): 1073 cpm; Product ([3]; 5 mM MnCl2, no external β1,4GalT): 566 cpm
GlcNAcβ1-2Manα1-6(GlcNAcβ1-2Manα1-3)Manβ1-4GlcNAcβ1-4(Fucα1-6)GlcNAcβ-N-Asn-R [Saccharide 1] | 0 | 0 | 0.01 | 0 | elevated in one patient | 0 | 0 | 0.006 | 0 | 
GlcNAcβ1-3GalNAcα-O—CH2—R [Saccharide 5] | 0.125 | 0.041 | 0.011 | 0.056 | identical pattern of antibody type response | 0.017 | 0.094 | 0 | 0 | 
GlcNAcβ1-6(Galβ1-3)GalNAcα-O—CH2—R [Saccharide 3] | 0.091 | 0.008 | 0.068 | 0.042 | elevated in the whole patient group | 0.039 | 0.078 | 0 | 0 | 
GlcNAcβ-O—CH2—R [Saccharide 4] | 0.159 | 0.029 | 0.122 | 0 | Two patients showed elevated serum levels of mainly IgM and one patient mainly IgG | 0 | 0.082 | 0.013 | 0 | 
uridine 5′-diphospho-N-(6-biotinamidohexanoyl)galactosamine [UDP-GalN-biotin] |  |  |  |  |  |  |  |  |  | transfer of the modified galactosamine residue to a terminal GlcNAc acceptor [6]: reacted; labeling of cancer cells in tissue sections [7]: cancer cells could be labeled
